Values after ≈ are worked out from the molar mass of the structure shown. Where two headings read alike, the source gives them in different places.
Columns and labels:
HCoV-229E = details: earlier work; read-out: EC50 against human coronavirus 229E (HCoV-229E); cited from earlier work
[1] = target: T1, human recombinant cathepsin L (Homo sapiens, UniProt P07711); test: biochemical; assay type: biochemical; details: read-out: Cathepsin L IC50; pH 5.5, Z-Phe-Arg-AMC substrate
T1 construct: made in house; host or cells: Escherichia coli
T1 sequence (P07711 114-333): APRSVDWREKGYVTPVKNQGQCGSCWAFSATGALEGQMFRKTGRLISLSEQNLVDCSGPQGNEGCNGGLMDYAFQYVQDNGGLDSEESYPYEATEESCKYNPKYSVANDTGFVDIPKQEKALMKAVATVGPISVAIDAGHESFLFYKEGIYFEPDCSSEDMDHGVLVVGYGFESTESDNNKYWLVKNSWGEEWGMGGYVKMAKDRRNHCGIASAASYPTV
Procedure: Cathepsin L inhibition was assessed as reported. Briefly, human recombinant cathepsin L was expressed in Escherichia coli[33]. Enzymatic activity was determined in 100 mM acetate buffer (pH 5.5) containing 0.1% PEG 8000, 5 mM cysteine and 1.5 mM EDTA. The enzyme was first activated in assay buffer for 5 min at 37 °C, after which it was added to the wells of a black microplate containing the Z-Phe-Arg-AMC substrate (Bachem) and compounds. Formation of the fluorescent cleavage product was monitored for 50 min at 37 °C, using a Tecan Infinit M1000 spectrofluorimeter set at 460 nm emission and 380 nm excitation wavelength. All assay mixtures contained 5% (v/v) DMSO and 0.01% Triton X-100 to prevent false-positive inhibition due to formation of compound aggregates. All measurements were performed in triplicate and repeated twice. The relative inhibition was calculated using the equation: Relative inhibition (%) = 100(1 − vi/vo), where vi and vo designate the reaction velocities in the presence and absence of inhibitor, respectively. IC50 values were determined from nine data points at different inhibitor concentrations.

E. faecium = test: microbe, parasite or virus in culture; assay type: cell-based; details: Enterococcus faecium
S. epidermidis = test: microbe, parasite or virus in culture; assay type: cell-based; details: Staphylococcus epidermidis
E. faecalis = test: MIC, broth microdilution; assay type: cell-based; details: Enterococcus faecalis
S.pyogenes = test: MIC, broth microdilution; assay type: cell-based; details: Streptococcus pyogenes
S. haemolyticus = test: MIC, broth microdilution; assay type: cell-based; details: Staphylococcus haemolyticus
S. aureus = test: MIC, broth microdilution; assay type: cell-based; details: Staphylococcus aureus
[2] = system: a panel of bacteria including MRSA; parameters: method as in PMID 32652783; details: earlier work; cited from earlier work
VeroE6 cells = test: Cytotoxicity in mock-infected VeroE6 cells (XTT); assay type: cell-based, African green monkey; details: mock-infected Vero E6 cells, three days, XTT
HEL cells = test: Cytotoxicity in mock-infected HEL cells (MTS); assay type: cell-based, human; details: mock-infected HEL cells, MTS, mean of 2–3 tests

For `CC(=O)N[C@H]1[C@H](O[C@@H]2c3ccc(c(Cl)c3)Oc3cc4cc(c3O)Oc3ccc(cc3Cl)C[C@H]3NC(=O)[C@H](n5cc(COCCOCCCC(F)(F)C(F)(F)C(F)(F)C(F)(F)F)nn5)c5ccc(O)c(c5)Oc5cc(O)cc(c5)[C@H](NC3=O)C(=O)N[C@H]4C(=O)N[C@H]3C(=O)N[C@@H]2C(=O)N[C@H](C(=O)O)c2cc(O)cc(O)c2-c2cc3ccc2O)O[C@H](CO)[C@@H](O)[C@@H]1O` [Compound 2], the EC50 (HCoV-229E) is listed as > 100 µM, the IC50 [1] is listed as 98 ± 1 µM and the MIC (E. faecium; read-out: Average MIC value, E. faecium VAN^R,TEI^R/VanA, 8 strains) is listed as > 8 µg/mL. For the same compound, the MIC (E. faecium; read-out: Average MIC value, E. faecium VAN^S, TEI^S, 1 strain) was 1 µg/mL (≈ 0.559 µM), the MIC (E. faecium; read-out: MIC value, E.faecium E335, VAN,TEI,LNZ/VanA) was > 8 µg/mL and the MIC (E. faecium; read-out: MIC value, E.faecium E355, VAN,TEI,LNZ/VanA) was > 8 µg/mL. The MIC (E. faecium; read-out: MIC value, E.faecium E832, VAN,TEI,LNZ/VanA) was > 8 µg/mL, the MIC (E. faecium; read-out: MIC value, E.faecium E854, VAN,TEI,LNZ/VanA) was > 8 µg/mL and the MIC (E. faecium; read-out: MIC value, E.faecium E859, VAN,TEI,LNZ/VanA) was > 8 µg/mL. The MIC (E. faecium; read-out: MIC value, E.faecium E1114, VAN,TEI,LNZ/VanA) was > 8 µg/mL, the MIC (E. faecium; read-out: MIC value, E.faecium E1131, VAN,TEI,LNZ/VanA) was > 8 µg/mL and the MIC (E. faecium; read-out: MIC value, E.faecium E1132, VAN,TEI,LNZ/VanA) was > 8 µg/mL. The MIC (E. faecium; read-out: MIC value, E.faecium TX0016) was 1 µg/mL (≈ 0.559 µM), the MIC (S. epidermidis; read-out: Average MIC value, S. epidermidis mecA, 6 strains) was 0.645 µg/mL (≈ 0.361 µM) and the MIC (S. epidermidis; read-out: MIC value, S.epidermidis ORI_R1, mecA) was 0.5 µg/mL (≈ 0.28 µM). The MIC (S. epidermidis; read-out: MIC value, S.epidermidis ORI_R2, mecA) was 0.5 µg/mL (≈ 0.28 µM), the MIC (S. epidermidis; read-out: MIC value, S.epidermidis ORI_R3, mecA) was 0.25 µg/mL (≈ 0.14 µM) and the MIC (S. epidermidis; read-out: MIC value, S.epidermidis ORI_R4, mecA) was 0.5 µg/mL (≈ 0.28 µM). The MIC (S. epidermidis; read-out: MIC value, S.epidermidis TEI_R1, mecA) was 0.125 µg/mL (≈ 0.0699 µM), the MIC (S. epidermidis; read-out: MIC value, S.epidermidis TEI_R2, mecA) was 2 µg/mL (≈ 1.12 µM) and the MIC (E. faecalis; read-out: Average MIC value, E. faecalis VAN^R,TEI^R/VanA, 1 strain) was > 8 µg/mL. It also gave an MIC (E. faecalis; read-out: Average MIC value, E. faecalis VAN^S, TEI^S, 2 strains) of 1 µg/mL (≈ 0.559 µM), an MIC (E. faecalis; read-out: MIC value, E.faecalis JH2-2) of 1 µg/mL (≈ 0.559 µM) and an MIC (E. faecalis; read-out: MIC value, E.faecalis OG1RF) of 1 µg/mL (≈ 0.559 µM). For the same compound, the MIC (E. faecalis; read-out: MIC value, E.faecalis V583, VAN,TEI/VanA) was > 8 µg/mL, the MIC (S.pyogenes; read-out: MIC value, S.pyogenes H232) was 0.0625 µg/mL (≈ 0.0349 µM) and the MIC (S.pyogenes; read-out: MIC value, S.pyogenes H550) was 0.0625 µg/mL (≈ 0.0349 µM). It also gave an MIC (S.pyogenes; read-out: MIC value, S.pyogenes H578) of 0.0625 µg/mL (≈ 0.0349 µM), an MIC (S. haemolyticus; S. haemolyticus mecA, 6 strains, read-out: Average MIC value) of 1.9 µg/mL (≈ 1.06 µM) and an MIC (S. haemolyticus; S.haemolyticus DALB_R1, mecA, read-out: MIC value) of 4 µg/mL (≈ 2.24 µM). It also gave an MIC (S. haemolyticus; S.haemolyticus DALB_R2, mecA, read-out: MIC value) of 2 µg/mL (≈ 1.12 µM), an MIC (S. haemolyticus; S.haemolyticus DALB_R3, mecA, read-out: MIC value) of 2 µg/mL (≈ 1.12 µM) and an MIC (S. haemolyticus; S.haemolyticus DALB_R4, mecA, read-out: MIC value) of 2 µg/mL (≈ 1.12 µM). The MIC (S. haemolyticus; S.haemolyticus DALB_R5, mecA, read-out: MIC value) was 0.5 µg/mL (≈ 0.28 µM), the MIC (S. haemolyticus; S.haemolyticus ORI_R1, mecA, read-out: MIC value) was 1 µg/mL (≈ 0.559 µM) and the MIC (S. aureus; ATCC 29213 / MSSA, read-out: MIC value, S. aureus ATCC29213, MSSA) was 0.0625 µg/mL (≈ 0.0349 µM). It also gave an MIC (S. aureus; MRSA / USA300, read-out: MIC value, S. aureus USA300, CA-MRSA) of 0.25 µg/mL (≈ 0.14 µM), an MIC (S. aureus; MRSA, read-out: Average MIC value, S. aureus CA-MRSA, 1 strain) of 0.25 µg/mL (≈ 0.14 µM) and an MIC (S. aureus; MRSA, read-out: Average MIC value, S. aureus MRSA, 7 strains) of 0.285 µg/mL (≈ 0.159 µM). The MIC (S. aureus; MRSA, read-out: MIC value, S. aureus 73OL, MRSA) was 0.25 µg/mL (≈ 0.14 µM), the MIC (S. aureus; MRSA, read-out: MIC value, S. aureus 214OL, MRSA) was 0.25 µg/mL (≈ 0.14 µM) and the MIC (S. aureus; MRSA, read-out: MIC value, S. aureus 1041OL, MRSA) was 0.25 µg/mL (≈ 0.14 µM). For the same compound, the MIC (S. aureus; MRSA, read-out: MIC value, S. aureus A6918, MRSA) was 0.5 µg/mL (≈ 0.28 µM), the MIC (S. aureus; MRSA, read-out: MIC value, S. aureus A6919, MRSA) was 0.25 µg/mL (≈ 0.14 µM) and the MIC (S. aureus; MRSA, read-out: MIC value, S. aureus Mu50, MRSA) was 0.25 µg/mL (≈ 0.14 µM). For the same compound, the MIC (S. aureus; MRSA, read-out: MIC value, S. aureus N315, MRSA) was 0.25 µg/mL (≈ 0.14 µM), the MIC (S. aureus; MSSA / NEWMAN, read-out: MIC value, S. aureus Newman, MSSA) was 0.5 µg/mL (≈ 0.28 µM) and the MIC (S. aureus; MSSA, read-out: Average MIC value, S. aureus MSSA, 4 strains) was 0.265 µg/mL (≈ 0.148 µM). The MIC (S. aureus; MSSA, read-out: MIC value, S. aureus MSSA476, MSSA) was 0.25 µg/mL (≈ 0.14 µM), the MIC (S. aureus; MSSA, read-out: MIC value, S. aureus SA564, MSSA) was 0.25 µg/mL (≈ 0.14 µM) and the “MIC against a panel of bacteria including MRSA” value [2] was 0.5 to 1 µM. For the same compound, the CC50 (VeroE6 cells) was > 100 µM and the CC50 (HEL cells) was > 100 µM.

Source: publication PMC9511441, “Semisynthetic teicoplanin derivatives with dual antimicrobial activity against SARS-CoV-2 and multiresistant bacteria” (Scientific Reports, 2022)
